Test results published in ChEMBL document CHEMBL1156506, “Changes to the HIV long terminal repeat and to HIV integrase differentially impact HIV integrase assembly, activity, and the binding of strand transfer inhibitors” (J Biol Chem, 2007).

Experiments:
Settings in all cases: tested as the 3H-labelled form
[1] = test system: Human immunodeficiency virus; assay: Binding affinity to HIV wild type integrase using U5 GTCACA LTR relative to wild type LTR
[2] = test system: Human immunodeficiency virus; assay: Inhibition of HIV wild type integrase assessed as strand transfer activity using U5 GTAC LTR by scintillation proximity assay relative to wild type LTR; set-up: scale not given: the % may be the effect or the level left
[3] = test system: Human immunodeficiency virus; assay: Inhibition of HIV wild type integrase assessed as strand transfer activity using U5 GTTA LTR by scintillation proximity assay relative to wild type LTR relative to wild type LTR; set-up: scale not given: the % may be the effect or the level left
[4] = test system: Human immunodeficiency virus; assay: Inhibition of HIV wild type integrase assessed as specific strand transfer activity using U5 GGCA LTR by scintillation proximity assay relative to wild type LTR; set-up: scale not given: the % may be the effect or the level left
[5] = test system: Human immunodeficiency virus type 1 integrase (Human immunodeficiency virus 1), Q7ZJM1 [N155H]; assay: Inhibition of HIV recombinant integrase N155H mutant assessed as strand transfer activity using U5 INTCA LTR by scintillation proximity assay relative to wild type LTR; set-up: scale not given: the % may be the effect or the level left
[6] = test system: Human immunodeficiency virus type 1 integrase (Human immunodeficiency virus 1), Q7ZJM1 [N155H]; assay: Binding affinity to HIV recombinant integrase N155H mutant using U5 GTC LTR relative to wild type LTR
[7] = test system: Human immunodeficiency virus; assay: Inhibition of HIV wild type integrase assessed as specific strand transfer activity using U5 ApTCA LTR by scintillation proximity assay relative to wild type LTR; set-up: scale not given: the % may be the effect or the level left
[8] = test system: Human immunodeficiency virus; assay: Inhibition of U5 GddA LTR HIV wild type integrase assessed as strand transfer activity using by scintillation proximity assay relative to wild type LTR; set-up: scale not given: the % may be the effect or the level left
[9] = test system: Human immunodeficiency virus type 1 integrase (Human immunodeficiency virus 1), Q7ZJM1 [N155H]; assay: Binding affinity to HIV recombinant integrase N155H mutant using U5 INTCA LTR relative to wild type LTR
[10] = test system: Human immunodeficiency virus; assay: Binding affinity to HIV wild type integrase using U5 GTAG LTR relative to wild type LTR
[11] = test system: Human immunodeficiency virus; assay: Binding affinity to HIV wild type integrase using U5 GTGC LTR relative to wild type LTR
[12] = test system: Human immunodeficiency virus; assay: Inhibition of HIV wild type integrase assessed as strand transfer activity using U5 GTCC LTR by scintillation proximity assay relative to wild type LTR; set-up: scale not given: the % may be the effect or the level left
[13] = test system: Human immunodeficiency virus type 1 integrase (Human immunodeficiency virus 1), Q7ZJM1 [N155H]; assay: Binding affinity to HIV recombinant integrase N155H mutant using U5 ApTCA LTR relative to wild type LTR
[14] = test system: Human immunodeficiency virus type 1 integrase (Human immunodeficiency virus 1), Q7ZJM1 [N155H]; assay: Inhibition of HIV recombinant integrase N155H mutant assessed as strand transfer activity using U5 GddA LTR by scintillation proximity assay relative to wild type LTR; set-up: scale not given: the % may be the effect or the level left
[15] = test system: Human immunodeficiency virus type 1 integrase (Human immunodeficiency virus 1), Q7ZJM1 [N155H]; assay: Inhibition of HIV recombinant integrase N155H mutant assessed as specific strand transfer activity using U5 GdCA LTR by scintillation proximity assay relative to wild type LTR; set-up: scale not given: the % may be the effect or the level left
[16] = test system: Human immunodeficiency virus type 1 integrase (Human immunodeficiency virus 1), Q7ZJM1 [N155H]; assay: Inhibition of HIV recombinant integrase N155H mutant assessed as strand transfer activity using U5 GTdA LTR by scintillation proximity assay relative to wild type LTR; set-up: scale not given: the % may be the effect or the level left
[17] = test system: Human immunodeficiency virus type 1 integrase (Human immunodeficiency virus 1), Q7ZJM1 [Q148R]; assay: Binding affinity to HIV recombinant integrase Q148R mutant using U5 GTdA LTR relative to wild type LTR
[18] = test system: Human immunodeficiency virus type 1 integrase (Human immunodeficiency virus 1), Q7ZJM1 [Q148R]; assay: Inhibition of U5 GTdA LTR HIV recombinant integrase Q148R mutant assessed as specific strand transfer activity using by scintillation proximity assay relative to wild type LTR; set-up: scale not given: the % may be the effect or the level left
[19] = test system: Human immunodeficiency virus; assay: Binding affinity to HIV wild type integrase using U5 GTGA LTR relative to wild type LTR
[20] = test system: Human immunodeficiency virus; assay: Inhibition of HIV wild type integrase assessed as strand transfer activity using U5 GdCA LTR by scintillation proximity assay relative to wild type LTR; set-up: scale not given: the % may be the effect or the level left
[21] = test system: Human immunodeficiency virus; assay: Inhibition of HIV wild type integrase assessed as strand transfer activity using U5 TTCA LTR by scintillation proximity assay relative to wild type LTR; set-up: scale not given: the % may be the effect or the level left
[22] = test system: Human immunodeficiency virus type 1 integrase (Human immunodeficiency virus 1), Q7ZJM1 [Q148R]; assay: Inhibition of U5 TTCA LTR HIV recombinant integrase Q148R mutant assessed as specific strand transfer activity using by scintillation proximity assay relative to wild type LTR; set-up: scale not given: the % may be the effect or the level left
[23] = test system: Human immunodeficiency virus type 1 integrase (Human immunodeficiency virus 1), Q7ZJM1 [N155H]; assay: Inhibition of HIV recombinant integrase N155H mutant assessed as strand transfer activity using U5 GTC LTR by scintillation proximity assay relative to wild type LTR; set-up: scale not given: the % may be the effect or the level left
[24] = test system: Human immunodeficiency virus; assay: Binding affinity to HIV wild type integrase using U5 GTCA/CT LTR relative to wild type LTR
[25] = test system: Human immunodeficiency virus; assay: Binding affinity to HIV wild type integrase using U5 GTCC LTR relative to wild type LTR
[26] = test system: Human immunodeficiency virus type 1 integrase (Human immunodeficiency virus 1), Q7ZJM1 [N155H]; assay: Inhibition of HIV recombinant integrase N155H mutant assessed as specific strand transfer activity using U5 GTC LTR by scintillation proximity assay relative to wild type LTR; set-up: scale not given: the % may be the effect or the level left
[27] = test system: Human immunodeficiency virus type 1 integrase (Human immunodeficiency virus 1), Q7ZJM1 [N155H]; assay: Inhibition of HIV recombinant integrase N155H mutant assessed as strand transfer activity using U5 dTCA LTR by scintillation proximity assay relative to wild type LTR; set-up: scale not given: the % may be the effect or the level left
[28] = test system: Human immunodeficiency virus; assay: Inhibition of HIV wild type integrase assessed as specific strand transfer activity using U5 GTGA LTR by scintillation proximity assay relative to wild type LTR; set-up: scale not given: the % may be the effect or the level left
[29] = test system: Human immunodeficiency virus; assay: Inhibition of HIV wild type integrase assessed as strand transfer activity using U5 dTCA LTR by scintillation proximity assay relative to wild type LTR; set-up: scale not given: the % may be the effect or the level left
[30] = test system: Human immunodeficiency virus; assay: Inhibition of HIV wild type integrase assessed as strand transfer activity using U5 GTAT LTR by scintillation proximity assay relative to wild type LTR; set-up: scale not given: the % may be the effect or the level left
[31] = test system: Human immunodeficiency virus; assay: Binding affinity to HIV wild type integrase using U5 GTdA LTR relative to wild type LTR
[32] = test system: Human immunodeficiency virus type 1 integrase (Human immunodeficiency virus 1), Q7ZJM1 [Q148R]; assay: Inhibition of HIV recombinant integrase Q148R mutant assessed as strand transfer activity using U5 INTCA LTR by scintillation proximity assay relative to wild type LTR; set-up: scale not given: the % may be the effect or the level left
[33] = test system: Human immunodeficiency virus type 1 integrase (Human immunodeficiency virus 1), Q7ZJM1 [N155H]; assay: Inhibition of HIV recombinant integrase N155H mutant assessed as specific strand transfer activity using U5 INTCA LTR by scintillation proximity assay relative to wild type LTR; set-up: scale not given: the % may be the effect or the level left
[34] = test system: Human immunodeficiency virus; assay: Inhibition of HIV wild type integrase assessed as specific strand transfer activity using U5 GdCA LTR by scintillation proximity assay relative to wild type LTR; set-up: scale not given: the % may be the effect or the level left
[35] = test system: Human immunodeficiency virus; assay: Binding affinity to HIV wild type integrase using U5 GTC LTR relative to wild type LTR
[36] = test system: Human immunodeficiency virus; assay: Inhibition of HIV wild type integrase assessed as strand transfer activity using U5 GTAG LTR by scintillation proximity assay relative to wild type LTR; set-up: scale not given: the % may be the effect or the level left
[37] = test system: Human immunodeficiency virus type 1 integrase (Human immunodeficiency virus 1), Q7ZJM1 [N155H]; assay: Inhibition of HIV recombinant integrase N155H mutant assessed as specific strand transfer activity using U5 GTCA LTR by scintillation proximity assay relative to wild type LTR; set-up: scale not given: the % may be the effect or the level left
[38] = test system: Human immunodeficiency virus; assay: Binding affinity to HIV wild type integrase using U5 INTCA LTR relative to wild type LTR
[39] = test system: Human immunodeficiency virus; assay: Binding affinity to HIV wild type integrase using U5 GTAT LTR relative to wild type LTR
[40] = test system: Human immunodeficiency virus type 1 integrase (Human immunodeficiency virus 1), Q7ZJM1 [Q148R]; assay: Binding affinity to HIV recombinant integrase Q148R mutant using U5 INTCA LTR relative to wild type LTR
[41] = test system: Human immunodeficiency virus type 1 integrase (Human immunodeficiency virus 1), Q7ZJM1 [Q148R]; assay: Inhibition of U5 GTC LTR HIV recombinant integrase Q148R mutant assessed as specific strand transfer activity using by scintillation proximity assay relative to wild type LTR; set-up: scale not given: the % may be the effect or the level left
[42] = test system: Human immunodeficiency virus; assay: Binding affinity to HIV wild type integrase using U5 GTCAGT LTR relative to wild type LTR
[43] = test system: Human immunodeficiency virus; assay: Binding affinity to HIV wild type integrase using U5 GdCA LTR relative to wild type LTR

Cn1c(N2CCCCS2(=O)=O)nc(C(=O)NCc2ccc(F)cc2)c(O)c1=O [BMS-707035]
Activity [1]: 75% | Activity [2]: < 25% | Activity [3]: 86% | Activity [4]: 8% | Activity [5]: 23% | Activity [6]: 4% | Activity [7]: 40% | Activity [8]: 1% | Activity [9]: 21% | Activity [10]: < 25% | Activity [11]: 25% | Activity [12]: 75% | Activity [13]: 2% | Activity [14]: 0.6% | Activity [15]: 62% | Activity [16]: 17% | Activity [17]: 2% | Activity [18]: > 50% | Activity [19]: 74% | Activity [20]: 70% | Activity [21]: 25% | Activity [22]: > 80% | Activity [23]: 90% | Activity [24]: < 25% | Activity [25]: 75% | Activity [26]: 107% | Activity [27]: 2% | Activity [28]: 136% | Activity [29]: 10% | Activity [30]: < 25% | Activity [31]: 37% | Activity [32]: 0.6% | Activity [33]: 135% | Activity [34]: 103% | Activity [35]: 59% | Activity [36]: < 25% | Activity [37]: 82% | Activity [38]: 62% | Activity [39]: < 25% | Activity [40]: 2% | Activity [41]: 83% | Activity [42]: 75% | Activity [43]: 40%
